From patent publication US7741274B2, “Casein derived peptides and uses thereof in therapy” (priority 2000, dated 2010)

Assays:
[1] = tested on: HIV-1IIIB; assay: Inhibition of HIV-1 infection of CEM lymphocytes (cell counts, P24 antigen assay); format: cell-based; settings: for cell counts: infected control 1.06×10^6; for HIV-1 infection level, P24 antigen: 7 days post infection, control 0.52
Description: (§1) Inhibition of in vitro HIV infection of human lymphocyte cells:
(§2) Peptides: Peptides (either peptides derived from natural casein or synthetic peptides derived from casein (1-25 amino acids in length, see table 3) supplied as lyophilized powder were resuspended in RPMI complete medium and added to cell cultures at a final concentrations of 50 to 1000 μg per ml.
(§3) Cells: Several types of freshly isolated human cells (primary cells) and cell lines are known to be susceptible to in vitro HIV-1 infection, although essentially any cell displaying even low surface levels of the CD4 molecule can be considered a potential target for HIV-1 infection. Two commonly used human cell lines which are highly sensitive for HIV-1 infection were chosen, CEM and Sup-T1.
CEM is a human T4-lymphoblastoid cell line initially derived by G. E. Foley et al. [(1965), Cancer 18:522] from peripheral blood buffy coat of a person with acute lymphoblastic leukemia. These cells were continuously maintained in suspension in medium, and have been used widely for analysis of infectivity, antiviral agents and neutralizing antibodies.
Virus: The HIV virus strain employed was HIV-1IIIB, originally designated HTLV-IIIB. Concentrated culture fluids of peripheral blood from several patients with AIDS or related diseases were used to establish a permanent productive infection in H-9 cells. This subtype B virus has high capacity to replicate in human T-cell lines. Viral titer was 5.38 ng per ml in stock solution.
HIV-1 P24 antigen capture assay: An HIV-1 P24 Antigen capture assay kit employed was designed to quantitate the HIV-1 P24 core antigen, which is proportionally related to the degree of viral production in cells. This kit was purchased from the AIDS Vaccine program of the SAIC-NCI-Frederick Cancer Research Institute, P.O. Box B, Frederick, Md. 21702, USA and included 96 well plates coated with monoclonal antibody to HIV-1 P24, primary antibody-rabbit anti-HIV P24 serum, secondary antibody-Goat anti-rabbit-IgG (H+ L) peroxidase conjugated antibody, TMB peroxidase substrate system and lysed HIV-1 P24 standard. The HIV-1 P24 antigen capture assay was analyzed by Organon-Technica ELISA reader at 450 nm with a reference at 650 nm.
HIV-1 P24 antigen capture ELISA: HIV infection was measured with an indirect enzyme immunoassay which detects HIV-1 P24 core antigens in tissue culture media. Tissue culture supernatant was reacted with primary rabbit anti-HIV-1 P24 antigen and visualized by peroxidase conjugated goat anti rabbit IgG. The reaction was terminated by adding 4N H2SO4, wherein the intensity of the color developed is proportional to the amount of HIV-1 antigen present in the tissue culture supernatant.
HIV infection of human cultured CD4+ cells: The cells (CEM, Sup-T1) were preincubated with several increasing concentrations of peptides derived from natural casein (50-1000 μg per ml) or synthetic peptides derived from casein (10-500 μg per ml) for 3, 24 (for synthetic and natural peptides) and 48 (only for natural peptides) hours and HIV-1IIIB (45 μg per ml final concentration) was added to each well thereafter. HIV-1IIIB was preincubated with the peptides for 3 hours and then added to cells (5000 cells/well) in tissue culture plates. Controls were IF (Infected, cells cultured with HIV-1 and without peptides), UIF (Uninfected, cells cultured without HIV-1 and without peptides) and UIF+Ch (Uninfected+peptides derived from natural casein, cells cultured in the presence of peptides derived from natural casein {50-1000 μg per ml}) to test the effect of peptides derived from natural casein and synthetic peptides derived from casein on cell viability and growth. Cells were counted for viability and proliferation rate on day 7, 10 and day 14 post infection (the day of P24 antigen culture supernatant harvest). Cells and tissue culture supernatants (media) were harvested and lysed immediately in 1/10 volume of 10% Triton X-100. […]

[2] = tested on: murine primary bone marrow cells; assay: Multipotential colonies (CFU-GEMM) from murine bone marrow cells, colony and differential counts; format: cell-based, mouse; settings: for megakaryocyte formation and development: 8 days treatment
Description: Stimulation of Hematopoiesis from Bone Marrow (BM) Cells in Culture:
Proliferation of megakaryocytes in multipotential colonies (CFU-GEMM) from murine Bone Marrow cells: Primary bone marrow cells (1×10^5 per ml) from 8-12 week-old C3H/HeJ mice were grown in serum-free methyl cellulose-IMDM medium for 8-9 days at 5% CO2, 95% air, at 37° C. The medium, appropriate for the growth of multipotential colonies (CFU-GEMM), contained 1% BSA (Sigma), 10^−4 M thioglycerol (Sigma), 2.8×10^−4 M human transferrin (TF, Biological industries, Israel), 10% WEHI-CM as a source of IL-3 and 2 units per ml erythropoietin (rhEPO, R & D Systems, Minneapolis). Colonies were scored after 8-9 days using an Olympus dark field microscope. They were picked with a micropipette, cytocentrifuged and stained with May-Grunwald-Giemsa for differential counts. At least 700 cells were counted for each preparation. […]
Proliferation of Macrophage cells in CFU-GEMM: Multipotent (CFU-GEMM colonies grown from primary bone marrow cells as described for the assay of megakaryocyte proliferation above were collected, stained and counted for macrophage cells. At least 700 cells were counted for each preparation.
Proliferation of Red Blood Cells in CFU-GEMM: Multipotent (CFU-GEMM) colonies grown from primary bone marrow cells as described for the assay of megakaryocyte proliferation above were collected, stained and counted for red blood cells. At least 700 cells were counted for each preparation. […]

[3] = tested on: female C57B1/6j mice fed an atherogenic diet; assay: Diet-induced hypercholesterol/hyperlipidemia in C57B1/6j mice; format: in vivo; settings: one week post 1 mg per mouse i.p.; diet control 52
Description: The ability of synthetic casein derived peptides to reduce cholesterol levels in 7-week old female C57B1/6j mice was assessed after feeding an atherogenic diet. The mice were divided into groups of 8. One control group was fed a normal diet. A second control group was fed the modified Thomas Hartroft diet containing cholate (#TD 88051: Teklad, Madison, Wis.) [Gerber, D. W. et al. (2000), Journal of Lipid Research. 42, 2001]. The remaining experimental groups were all fed the modified Thomas Hartroft diet.
Cholesterol blood levels were determined according to Roche Cholesterol Assay based on Roeschlou & Allin enzymatic method (Roche, Inc., Germany).

[4] = tested on: Non-Obese Diabetic (NOD) mice; assay: Intraperitoneal Glucose Tolerance Test (IPGTT) in NOD mice; format: in vivo, mouse; parameters: IPGT TEST 0 min. (pre-load), plasma glucose: unit not given here; settings: for IPGT test result (in words): healthy NOD mice after 25 weeks; for IPGT TEST 0 min. (pre-load), plasma glucose: individual healthy NOD mice, 25 weeks after peptides
Description: Intraperitoneal Glucose Tolerance Test (IPGTT):
The glucose tolerance test is the definitive method for investigating glucose metabolism and diabetic tendencies in mammals. Twenty five (25) weeks after receiving Synthetic peptides derived from casein, response to a glucose load was assessed with an intraperitoneal glucose tolerance test. Glucose injection consisted of 1 g/kg body weight. Glycemic values were determined from blood drawn prior to test (0 minutes) and 60 minutes after loading.

[5] = tested on: Non-Obese Diabetic (NOD) mice; assay: Prevention of glucosuria / Juvenile (Type I, IDDM) Diabetes in NOD mice; format: in vivo, mouse; settings: 100 μg once weekly for 5 weeks, evaluated after 25 weeks; for Healthy/Total* (healthy and well = sugar not detected in urine): female NOD mice
Description: Juvenile (Type I, IDDM) Diabetes in Non-Obese Diabetic (NOD) Mice:
Peptides Derived from Natural Casein:
NOD mice are a commonly used model for research of autoimmune disease and human Juvenile Diabetes. Six week old female NOD mice received either one or two injections per week of 100 μg of peptides derived from natural casein, for a total of 5 or 11 treatments. Control mice received no treatment. The severity of disease was determined according to glucosuria, which was measured using Combi test sticks [Gross, D. J. et al. (1994), Diabetology, 37:1195]. Results were expressed as the percent of glucosuria-free mice in each sample over a 365-day period.
Synthetic Peptides Derived from Casein:
In another experiment, 6 week old female NOD mice received one injection per week of 100 μg of Synthetic peptides derived from casein for a total of 5 treatments. Control mice received no treatment. Results were expressed as the number of healthy mice in the various treated groups.

[6] = tested on: HIV-1IIIB; assay: Inhibition of HIV-1 infection of Sup-T1 cells; format: cell-based
Description: as §1, §2
as §3, with “Sup-T1. […]” for “Sup-T1.”
HIV-1 P24 antigen capture assay: An HIV-1 P24 Antigen capture assay kit employed was designed to quantitate the HIV-1 P24 core antigen, which is proportionally related to the degree of viral production in cells. […] The HIV-1 P24 antigen capture assay was analyzed by Organon-Technica ELISA reader at 450 nm with a reference at 650 nm.
HIV-1 P24 antigen capture ELISA: HIV infection was measured with an indirect enzyme immunoassay which detects HIV-1 P24 core antigens in tissue culture media. […]

[7] = tested on: human bone marrow cells; assay: Colony assays of human bone marrow cells (CFU-GM, erythroid, megakaryocyte, CFU-GEMM); format: cell-based; settings: TPO-treated cells without peptides
Description: Proliferation of megakaryocyte- and erythroid forming cells from human bone marrow and cord blood cells: A sample of bone marrow from an apparently healthy human being was processed by density gradient separation using Histopaque-107 (Sigma Diagnostics) to obtain a purified population of mononuclear cells (MNC). […]
Colony assay medium containing 10^5 MNC per ml was plated in triplicate wells within a 24 well tissue culture plate (Greiner), 0.33 ml per well. […] Plates were scored after 14 days for colonies containing more than 50 cells. […]
Megakaryocytopoiesis was measured in normal bone marrow cells from healthy consenting human donors by either scoring of the number of megakaryocytes in samples of liquid culture (RPMI-1640 plus 10% human AB serum, glutamine and antibiotics) with or without 100 μg per ml peptides derived from natural casein, or in a methylcellulose assay for assessing colony formation. […] In the methylcellulose assay megakaryocytes were counted with an inverted microscope on days 12-14 after seeding.

Substance	cell counts ([1]; 10 μg per ml, 3 hours pretreatment)	HIV-1 infection level, P24 antigen ([1]; 10 μg per ml) [ng P24 Ag per ml]	cell counts ([1]; 25 μg per ml, 3 hours pretreatment)	HIV-1 infection level, P24 antigen ([1]; 25 μg per ml) [ng P24 Ag per ml]	resistance of CEM cells to HIV-1 infection (in words) ([1]; 3 hours pretreatment)	megakaryocyte formation and development [2]	HDL [3] [mg/dL]	IPGT test result (in words) [4]	IPGT TEST 0 min. (pre-load), plasma glucose [4]	macrophages, % of total cell count ([2]; approximately 17% in unincubated controls) [%]	prevention of glucosuria (in words) [5]	Healthy/Total* (healthy and well = sugar not detected in urine) [5]	increase in lymphocyte cell number in infected cells ([6]; 250 μg) [%]	increase in lymphocyte cell number in infected cells ([6]; 500 μg per ml) [%]	megakaryocyte (MK) colonies [7] [colonies per 2×10^5 cells]
RPKHP [3P]	1.17 ×10^6	0.26	1.26 ×10^6	0.18	significant inhibition of HIV-1 infection	significant increase	41	–	–	–	–	–	–	–	–
RPKHPIKHQ [X]	–	–	–	–	–	–	–	no evidence of abnormal glucose metabolism	94	~30	highly effective	3/5	80	33	–
RPKHPIKHQGL [2a]	–	–	–	–	–	significant increase	40	The other two mice remained within normal glycemic range	95	–	highly effective	4/5	–	–	–
TPO: thrombopoietin, hematopoietic growth factor that stimulates megakaryocyte colony formation	–	–	–	–	–	–	–	–	–	–	–	–	–	–	16
